According to patent US11427783B2, “Perfuming compositions” (Firmenich SA, priority 2016, dated 2022):
Where a name gives a salt, the structure may show the parent alone. Read-outs that look alike come from different tables or passages of the source.

Key:
[1] = Volatility of perfuming compounds in air; type: physicochemical
[2] = Odor threshold of perfuming compounds in air
[3] = Log P (n-octanol/water) of perfuming compounds
[4] = n-octanol/water, perfuming compounds having a fruity note (Table 6)
[5] = Table 5, perfuming compounds having a green note
[6] = Table 10, perfuming compounds having a woody note
[7] = Table 8, perfuming compounds having a sweet note
[8] = Table 9, perfuming compounds having a gourmand note

Volatility ([1]; Table 4, watery note) | logP (physchem; n-octanol/water) | SMILES | Odor Threshold ([2]; Table 4, watery note) | Odor Threshold ([2]; Table 7, citrus note) | other results
26.54 μg/l air | 5.14 | CC(C)=CCCC1=CCC(C)(C=O)CC1 (racemic) | 2.72E−02 μg/l air | – | –
4.86 μg/l air | 3.12 | Cc1ccc2c(c1)CC(C)(CO)C2 (racemic) | 1.28E−04 μg/l air | – | –
– | 3.15 | CC(C)=CCCC(C)C=O (racemic) | 2.11E−04 μg/l air | – | Log P (n-octanol/water) [3, 4]: 3.15
– | 3.12 | C=CC(C)CC(=O)CC(C)C (racemic) | – | 2.78E−01 μg/l air | Log P (n-octanol/water) ([3]; Table 7, citrus note): 3.12
18.23 μg/l air | 5.2 | CC(C)=CCCC(C)CCCC(C)C=O (racemic) | 1.59E−02 μg/l air | – | –
– | 4.24 | CC(C)CCCC(C)CCO (racemic) | – | 4.59E−02 μg/l air | Volatility ([1]; Table 7, citrus note): 76.57 μg/l air
– | 4.33 | CC(C)=CCCC(C)CCOCC=O (racemic) | – | 8.95E−04 μg/l air | Volatility ([1]; Table 7, citrus note): 4.70 μg/l air
– | – | C=CC(C)(CCC=C(C)C)OC(C)=O (racemic) [(+−)-1,5-DIMETHYL-1-VINYL-4-HEXENYL ACETATE] | – | 7.40E−02 μg/l air | logP (physchem): 4.04; Log P (n-octanol/water) ([3]; Table 7, citrus note): 4.04; Log P (n-octanol/water) [3, 4]: 4.04
– | 2.22 | CC(=O)OC(C)c1ccccc1 (racemic) [(+−)-1-PHENYLETHYL ACETATE] | – | 4.43E−02 μg/l air | Log P (n-octanol/water) ([3]; Table 7, citrus note): 2.22
12.86 μg/l air | 3.9 | CC(C=O)Cc1ccc(C(C)(C)C)cc1 (racemic) [(+−)-2-methyl-3-[4-(2-methyl-2-propanyl)phenyl]propanal] | 2.39E−04 μg/l air | – | –
75.55 μg/l air | 5.01 | CCCCCCCCCC(C)C=O (racemic) [(+−)-2-methylundecanal] | 7.24E−05 μg/l air | – | –
– | 3.67 | CCCCCC(C#N)CCC (racemic) [(+−)-2-propylheptanenitrile] | – | 7.83E−02 μg/l air | Log P (n-octanol/water) ([3]; Table 7, citrus note): 3.67
– | – | C=CC(C)(O)CCC=C(C)C (racemic) [(+−)-3,7-dimethyl-1,6-octadien-3-ol] | – | 8.89E−05 μg/l air | –
14.74 μg/l air | – | CC(C)c1cccc(C(C)CC=O)c1 (racemic) [(+−)-3-(3-ISOPROPYL-1-PHENYL)BUTANAL] | 7.71E−04 μg/l air | – | Volatility [1, 5]: 14.74 μg/l air
24.85 μg/l air | 3.59 | CC(C=O)Cc1ccc(C(C)C)cc1 (racemic) [(+−)-3-(4-isopropylphenyl)-2-methylpropanal] | 3.00E−03 μg/l air | – | –
18.99 μg/l air | 2.8 | COc1ccc(CC(C)C=O)cc1 (racemic) [(+−)-3-(4-methoxyphenyl)-2-methylpropanal] | 9.79E−03 μg/l air | – | Volatility [1, 5]: 18.99 μg/l air; Log P (n-octanol/water) [3, 5]: 2.80
12.81 μg/l air | 2 | CC(CC=O)CCCC(C)(C)O (racemic) [(+−)-7-hydroxy-3,7-dimethyloctanal] | 6.98E−03 μg/l air | – | –
– | 3.57 | COCC(C)Cc1ccccc1 (racemic) [(+−)-(3-methoxy-2-methylpropyl)benzene] | – | 1.51E−02 μg/l air | Log P (n-octanol/water) ([3]; Table 7, citrus note): 3.57; Log P (n-octanol/water) [3, 4]: 3.57
– | 2.85 | CCC(C)C(=O)OC(C)C (racemic) [(+−)-ISOPROPYL 2-METHYLBUTANOATE] | – | 8.42E−03 μg/l air | Log P (n-octanol/water) ([3]; Table 7, citrus note): 2.85
79.79 μg/l air | 2.22 | CC(C)CC1CC(C)(O)CCO1 (racemic) [(+−)-TETRAHYDRO-2-ISOBUTYL-4-METHYL-4(2H)-PYRANOL] | 1.35E−02 μg/l air | – | –
– | 3.37 | CCCCC(CC)C(=O)OC (racemic) [(+−)-methyl 2-ethylhexanoate] | – | – | Volatility (μg/l air) [1, 6]: 6677.64 μg/l air; Log P (n-octanol/water) [3, 6]: 3.37
– | 2.92 | CCCCC[C@H]1C(=O)CC[C@@H]1CC(=O)OC (racemic) [methyl 2-((1RS,2RS)-3-oxo-2-pentylcyclopentyl)acetate] | – | 5.77E−04 μg/l air | Volatility ([1]; Table 7, citrus note): 2.12 μg/l air
– | – | C=C(C)C1CC=C(C)CC1 (single isomer, unassigned; (+)) [(+)-LIMONENE] | – | 1.29E−01 μg/l air | –
– | 4.01 | CC(OC=O)C1CCCC(C)(C)C1 (stereo not drawn) [1-(3,3-DIMETHYL-1-CYCLOHEXYL)ETHYL FORMATE] | – | 2.05E−01 μg/l air | –

Volatility ([1]; Table 4, watery note) | logP (physchem; n-octanol/water) | SMILES | Odor Threshold ([2]; Table 4, watery note) | Odor Threshold ([2]; Table 7, citrus note) | other results
– | – | CC1=CCC(C(C)C)=CC1 [1-methyl-4-(2-propanyl)-1,4-cyclohexadiene] | – | 1.16E−01 μg/l air | Volatility ([1]; Table 7, citrus note): 4298.67 μg/l air; logP (physchem): 5.87
– | 3.82 | CCOc1ccc2ccccc2c1 [2-ETHOXYNAPHTHALENE] | – | 3.57E−03 μg/l air | Volatility ([1]; Table 7, citrus note): 22.67 μg/l air
– | 1.9 | O=COCCc1ccccc1 [2-PHENYLETHYL FORMATE] | – | 8.34E−04 μg/l air | Log P (n-octanol/water) ([3]; Table 7, citrus note): 1.90; Log P (n-octanol/water) [3, 4]: 1.90
– | 2.15 | C/C=C/c1ccc(O)c(OC)c1 [2-methoxy-4-[(1E)-1-propen-1-yl]phenol] | – | – | Volatility (μg/l air) [1, 7]: 11.28 μg/l air; Volatility (μg/l air) [1, 8]: 11.28 μg/l air; Log P (n-octanol/water) [3, 8]: 2.15
– | 0.72 | COc1cc(C=O)ccc1O [4-hydroxy-3-methoxybenzaldehyde] | – | – | Volatility (μg/l air) [1, 7]: 4.24 μg/l air; Volatility (μg/l air) [1, 8]: 4.24 μg/l air; Log P (n-octanol/water) [3, 8]: 0.72
– | 3 | CCCCCCC1CCCC(=O)O1 (stereo not drawn) [6-hexyltetrahydro-2H-pyran-2-one] | – | – | Volatility (μg/l air) ([1]; Table 6, perfuming compounds having a fruity note): 4.64 μg/l air; Volatility (μg/l air) [1, 7]: 4.64 μg/l air; Volatility (μg/l air) [1, 8]: 4.64 μg/l air; Log P (n-octanol/water) [3, 7]: 3.00; Log P (n-octanol/water) [3, 8]: 3.00
4.37 μg/l air | 2.97 | CC(C)(C)c1ccc2c(c1)OCC(=O)CO2 [7-(2-methyl-2-propanyl)-2H-1,5-benzodioxepin-3(4H)-one] | 1.53E−04 μg/l air | – | Volatility [1, 5]: 4.37 μg/l air; Log P (n-octanol/water) [3, 5]: 2.97
4.85 μg/l air | 2.79 | CCCc1ccc2c(c1)OCC(=O)CO2 [7-PROPYL-2H,4H-1,5-BENZODIOXEPIN-3-ONE] | 6.43E−05 μg/l air | – | Volatility [1, 5]: 4.85 μg/l air; Log P (n-octanol/water) [3, 5]: 2.79
131.02 μg/l air | 3.81 | CC1=CC2CC(C=O)C1CC2C(C)C (stereo not drawn) [8-ISOPROPYL-6-METHYL-BICYCLO[2.2.2]OCT-5-ENE-2-CARBALDEHYDE] | 7.11E−05 μg/l air | – | Volatility [1, 5]: 131.02 μg/l air; Log P (n-octanol/water) [3, 5]: 3.81
136.73 μg/l air | 3.93 | C=CCCCCCCCCC=O [10-undecenal] | 3.15E−03 μg/l air | – | –
– | 1.62 | CCC/C=C/C=O [(2E)-2-HEXENAL] | – | 2.53E−03 μg/l air | Log P (n-octanol/water) ([3]; Table 7, citrus note): 1.62; Log P (n-octanol/water) [3, 4]: 1.62
98.76 μg/l air | 2.68 | CC/C=C\CC/C=C/CO [(2E,6Z)-2,6-NONADIEN-1-OL] | 3.22E−06 μg/l air | – | Volatility [1, 5]: 98.76 μg/l air; Log P (n-octanol/water) [3, 5]: 2.68
632.43 μg/l air | – | CC/C=C\CC/C=C/C=O [(2E,6Z)-2,6-NONADIENAL″, (2E,6Z)-2,6-NONADIENAL] | 1.46E−04 μg/l air | – | Volatility [1, 5]: 632.43 μg/l air
– | – | CCCCC/C=C/CCC=O [(E)-4-DECENAL] | – | 7.59E−05 μg/l air | Volatility ([1]; Table 7, citrus note): 691.34 μg/l air
– | 3.17 | CCCOC(=O)[C@H](C)OC(C)(C)CC [(−)-PROPYL (S)-2-(1,1-DIMETHYLPROPOXY)PROPANOATE] | – | 4.98E−01 μg/l air | –
466.56 μg/l air | 3.99 | CCCCCCCCCC=O [DECANAL″, DECANAL] | 1.92E−03 μg/l air | – | –
– | – | C=CCSSCC=C [DIALLYL DISULFIDE] | – | – | Volatility (μg/l air) [1, 7]: 5487.52 μg/l air; Volatility (μg/l air) [1, 8]: 5487.52 μg/l air; logP (physchem): 3.3; Log P (n-octanol/water) [3, 8]: 3.30
144.79 μg/l air | 4.94 | CCCCCCCCCCCC=O [DODECANAL] | 9.90E−04 μg/l air | – | –
1.52 μg/l air | 2.3 | COC(=O)c1c(C)cc(O)c(C)c1O [METHYL 2,4-DIHYDROXY-3,6-DIMETHYLBENZOATE] | 4.89E−06 μg/l air | – | –
472.01 μg/l air | 2.9 | CCCCCC#CC(=O)OC [METHYL 2-OCTYNOATE″, METHYL 2-OCTYNOATE] | 8.31E−04 μg/l air | – | Volatility [1, 5]: 472.01 μg/l air
– | 3.69 | CCCCCCCOC(C)=O [heptyl acetate] | – | 1.32E−01 μg/l air | Log P (n-octanol/water) ([3]; Table 7, citrus note): 3.69
– | 4.29 | CCCCCCCCOC(C)=O [octyl acetate] | – | 1.76E−01 μg/l air | Log P (n-octanol/water) ([3]; Table 7, citrus note): 4.29
178.29 μg/l air | 4.56 | CCCCCCCCCCC=O [undecanal] | 1.65E−03 μg/l air | – | –

SMILES | Volatility ([1]; Table 4, watery note) | logP (physchem; n-octanol/water) | Odor Threshold ([2]; Table 4, watery note) | Odor Threshold ([2]; Table 7, citrus note) | other results
CC(C=O)Cc1ccc2c(c1)OCO2 (racemic) [(+−)-3-(1,3-BENZODIOXOL-5-YL)-2-METHYLPROPANAL] | 3.57 μg/l air | – | 2.23E−04 μg/l air | – | logP (physchem): 1.28
CCCCOC(C)=O [BUTYL ACETATE] | – | 2.11 | – | – | Volatility (μg/l air) [1]: 117207.52 μg/l air; Log P (n-octanol/water) [3, 7]: 2.11; Log P (n-octanol/water) [3, 8]: 2.11
CCCCCCCCCCCC#N [DODECANENITRILE] | 56.74 μg/l air | 1.61 | 3.20E−06 μg/l air | – | –
